Source: US11001584B2, “Polymorphs” (SYNGENTA PARTICIPATIONS AG, priority 2016, dated 2021)

Experiment: Stability of polymorphs: equal amounts of both polymorphs stirred in IPA, form determined by DSC and high throughput pXRD
Assay type: physicochemical
Conditions: 24 hours
Description: Equal amounts of the polymorph of the invention and the Reference Form A polymorph were stirred in IPA at a range of temperatures. After 24 hours, the crystals were isolated and dried and their polymorphic form determined by DSC and high throughput pXRD.

Compound | DSC curves of the isolated crystals (polymorphic form present) (equal amounts of polymorph of the invention and Reference Form A stirred in IPA at a range of temperatures) | Powder XRD patterns of the isolated crystals (polymorphic form present) (equal amounts of polymorph of the invention and Reference Form A stirred in IPA, room temperature, 40° C. and 50° C.) | Relative polymorphic stability (stirred with Reference Form A in IPA, room temperature up to 50° C.)
CCOC(=O)OC1=C(c2c(C)cc(Cl)cc2C)C(=O)N(C)C12CCN(OC)CC2 [Reference Form A] | marked reduction in the presence of Reference Form A | reflections characteristic of Reference Form A were absent | –
CCOC(=O)OC1=C(c2c(C)cc(Cl)cc2C)C(=O)N(C)C12CCN(OC)CC2 [polymorph of the invention] | – | – | the stable form over the temperature range studied
